Measured values as given in patent US9463197B2, “Method for treating abnormal polyglutamine-mediated disease” (NATIONAL TAIWAN NORMAL UNIVERSITY, priority 2013, dated 2016).

Columns and labels:
porcine kidney trehalase = molecular target: T1, porcine kidney trehalase (Sus scrofa, UniProt I3LIR5); experiment: Inhibition of analogs against trehalase activity (glucose from trehalose, HPLC); format: biochemical; details: preincubated 30 min at 37°C
T1 sequence (I3LIR5 24-583): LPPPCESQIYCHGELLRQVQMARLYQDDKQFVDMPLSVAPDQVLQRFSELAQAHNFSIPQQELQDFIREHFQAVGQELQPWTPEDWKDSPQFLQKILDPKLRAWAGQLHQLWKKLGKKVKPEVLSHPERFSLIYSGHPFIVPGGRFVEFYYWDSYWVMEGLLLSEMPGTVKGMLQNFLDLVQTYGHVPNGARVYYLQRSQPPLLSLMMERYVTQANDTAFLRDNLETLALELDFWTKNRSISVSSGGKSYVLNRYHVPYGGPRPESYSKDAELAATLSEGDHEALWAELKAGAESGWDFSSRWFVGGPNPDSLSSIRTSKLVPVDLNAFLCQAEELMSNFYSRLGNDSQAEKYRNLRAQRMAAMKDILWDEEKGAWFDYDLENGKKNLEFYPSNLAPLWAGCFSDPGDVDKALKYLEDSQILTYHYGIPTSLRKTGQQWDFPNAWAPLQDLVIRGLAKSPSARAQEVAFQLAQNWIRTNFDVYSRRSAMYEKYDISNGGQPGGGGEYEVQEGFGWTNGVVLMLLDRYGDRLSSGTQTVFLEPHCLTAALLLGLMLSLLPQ
Experimental: Hydrolysis of trehalose and analogs was tested using porcine kidney trehalase (Sigma-Aldrich, T8778). The standard reaction was performed by adding 0.001 unit of trehalase into 50 μl reaction solution containing 135 mM citric acid (pH 5.7) and 28 mM trehalose or trehalose analogs. […] The standard reaction was performed by adding 0.001 unit of trehalase into 50 μl reaction solution containing 135 mM citric acid (pH 5.7) and 44.8 mM α-D-lactulose, 44.8 mM α-D-melibiose, 0.2 μM validamycin A, or 0.2 μM validoxylamine A. Trehalase was incubated with analog for 30 min at 37° C., and the reaction was then started by addition of trehalose. After incubation at 37° C. for 2 hr, the reaction was terminated by heating the mixture in boiling water for 15 min. The activity of trehalase was assayed by measuring the amount of glucose produced from trehalose. The amount of carbohydrates after each enzymatic reaction was measured using a high-performance liquid chromatography (HPLC) system (Schambeck SFD 2100) equipped with an refractive index (RI) detector (SFD, RI 2000) at a flow rate of 1 ml/min. A carbohydrate analysis column (Shodex SUGAR SZ5532, 6.0 mm ID×150 mm L) equilibrated with 75% acetonitrile, 24% Milli-Q water, and 1% formic acid was used. The RI detector and column oven temperature were set to 40 and 60° C., respectively.
Hydrolysis of trehalose, lactulose and melibiose (28 mM) was tested using porcine kidney trehalase (1 mU).

293 ATXN3/Q75-GFP cells = experiment: ATXN3/Q75 aggregation assay (high content analysis); format: cell-based; details: at 100 nM; doxycycline and oxaliplatin 6 days; positive control
Experimental: 293 ATXN3/Q75-GFP cells were plated into 96-well (2×10^4/well) dishes, grown for 24 hr and treated with different concentrations of the trehalose or analogs (100 nM˜100 μM) and suberoylanilide hydroxamic acid (SAHA, Cayman Chemical) for 8 hr. Then, doxycycline (10 μg/mL, BD) was added to the medium in each well to induce ATXN3/Q75-GFP expression for 6 days. Oxaliplatin (5 μM, Sigma) was also added to increase aggregate accumulation through inhibition of cell division. Then, cells were stained with Hoechst 33342 (0.1 μg/mL, Sigma) and aggregation percentage was assessed by high content analysis (HCA) system (ImageXpressMICRO, Molecular Devices), with excitation/emission wavelengths at 482/536 (EGFP).
In the present example, the influences of the trehalose and analogs and HDAC inhibitor SAHA in the ATXN3/Q75-GFP cells were respectively examined. After 6 days of the treatment of doxycycline and oxaliplatin, the fluorescence microscopy images were observed, and aggregation percentage of ATXN3/Q75-GFP cells was assessed by high-content analysis system. The result was shown in FIG. 3, as a positive control, HDAC inhibitor SAHA reduced the ATXN3/Q75 aggregation to 85% (at 100 nM) as compared to untreated cells (100%).

Structure (SMILES) | Inhibition of trehalase activity (glucose generated from trehalose) (porcine kidney trehalase; 44.8 mM analog) | Inhibition of trehalase activity (glucose generated from trehalose) (porcine kidney trehalase; 0.2 μM inhibitor) | further results
OC[C@H]1O[C@@H](O[C@@H]2[C@@H](CO)O[C@](O)(CO)[C@H]2O)[C@H](O)[C@@H](O)[C@H]1O [lactulose, α-D-lactulose] | did not inhibit the trehalase activity | – | –
OCC1=C[C@H](N[C@H]2C[C@H](CO)[C@@H](O)[C@H](O)[C@H]2O)[C@H](O)[C@@H](O)[C@@H]1O [validoxylamine A] | – | can inhibit the trehalase activity | –
OCC1=C[C@@H](N[C@H]2C[C@H](CO)[C@@H](O[C@H]3O[C@@H](CO)[C@H](O)[C@@H](O)[C@@H]3O)[C@H](O)[C@H]2O)[C@H](O)[C@@H](O)[C@@H]1O [validamycin A] | – | can inhibit the trehalase activity | –
O=C(CCCCCCC(=O)Nc1ccccc1)NO [SAHA, suberoylanilide hydroxamic acid] | – | – | ATXN3/Q75 aggregation as compared to untreated cells (100%) (293 ATXN3/Q75-GFP cells): 85%
OC[C@H]1O[C@H](OC[C@H]2O[C@H](O)[C@H](O)[C@@H](O)[C@@H]2O)[C@H](O)[C@@H](O)[C@H]1O [melibiose, D-(+)-melibiose] | did not inhibit the trehalase activity | – | –
